Laboratory results: patent publication US20070003585A1, “Topical skin treating compositions” (STIEFEL LABORATORIES, INC., priority 2005, published 2007)
Like-named read-outs stand apart in the source and are kept apart here.

Columns and labels:
[1] = Storage stability of composition containing 2.15% of benzoyl peroxide, […] of tazarotene, and […] of clindamycin (Example 8); assay type: physicochemical; conditions: Example 8 composition, initial […], 6 months
[2] = Storage stability of composition containing 2.02% of benzoyl peroxide, […] of tazarotene, and […] of clindamycin (Example 9); assay type: physicochemical; conditions: Example 9 composition, initial […]
[3] = Storage stability of composition containing 0.209% of tazarotene and 2.13% of clindamycin (Example 14); assay type: physicochemical; conditions: Example 14 composition, initial 0.209%
[4] = Storage stability of composition containing […] of tazarotene and […] of clindamycin (Example 16); assay type: physicochemical; conditions: Example 16 composition, initial […], 6 months
[5] = Storage stability of composition containing 2.02% of benzoyl peroxide and 0.099% of tazarotene (Example 17); assay type: physicochemical; conditions: Example 17 composition, initial […]
Source text: (§1) The results are as follows:

[6] = Storage stability of composition containing 5.18% of benzoyl peroxide and 0.099% of tazarotene (Example 18); assay type: physicochemical; conditions: Example 18 composition, initial […]
Source text: as §1

[7] = Example 6 composition, initial […]
[8] = Example 7 composition, initial […]
[9] = Example 11 composition, initial […]
[10] = Example 12 composition, initial […]
[11] = Example 13 composition, initial […]
[12] = Example 15 composition, initial 0.109%

CCOC(=O)c1ccc(C#Cc2ccc3c(c2)C(C)(C)CCS3)nc1 [Tazarotene]
Tazarotene (as % w/w) ([1]; 6° C.): 0.099 % w/w | Tazarotene (as % w/w) ([1]; 25° C.): 0.097 % w/w | Tazarotene (as % w/w) ([1]; 30° C.): 0.079 % w/w | Tazarotene (as % w/w) ([1]; 40° C.): 0.057 % w/w | Tazarotene (as % w/w) ([2]; 6 months, 6° C.): 0.104 % w/w | Tazarotene (as % w/w) ([2]; 6 months, 25° C.): 0.089 % w/w | Tazarotene (as % w/w) ([2]; 6 months, 30° C.): 0.089 % w/w | Tazarotene (as % w/w) ([2]; 6 months, 40° C.): 0.003 % w/w | Tazarotene (as % w/w) ([2]; 90 days, 6° C.): 0.103 % w/w | Tazarotene (as % w/w) ([2]; 90 days, 25° C.): 0.092 % w/w | Tazarotene (as % w/w) ([2]; 90 days, 30° C.): 0.090 % w/w | Tazarotene (as % w/w) ([2]; 90 days, 40° C.): 0.071 % w/w | Tazarotene (as % w/w) ([3]; 4 weeks, 25° C.): 0.208 % w/w | Tazarotene (as % w/w) ([3]; 4 weeks, 30° C.): 0.208 % w/w | Tazarotene (as % w/w) ([3]; 4 weeks, 40° C.): 0.205 % w/w | Tazarotene (as % w/w) ([3]; 6 months, 25° C.): 0.206 % w/w | Tazarotene (as % w/w) ([3]; 6 months, 30° C.): 0.206 % w/w | Tazarotene (as % w/w) ([3]; 6 months, 40° C.): 0.205 % w/w | Tazarotene (as % w/w) ([3]; 90 days, 25° C.): 0.204 % w/w | Tazarotene (as % w/w) ([3]; 90 days, 30° C.): 0.208 % w/w | Tazarotene (as % w/w) ([3]; 90 days, 40° C.): 0.208 % w/w | Tazarotene (as % w/w) ([4]; 6° C.): 0.101 % w/w | Tazarotene (as % w/w) ([4]; 25° C.): 0.102 % w/w | Tazarotene (as % w/w) ([4]; 30° C.): 0.104 % w/w | Tazarotene (as % w/w) ([4]; 40° C.): 0.103 % w/w | Tazarotene (as % w/w) ([5]; 6 months, 6° C.): 0.108 % w/w | Tazarotene (as % w/w) ([5]; 6 months, 25° C.): 0.081 % w/w | Tazarotene (as % w/w) ([5]; 6 months, 30° C.): 0.070 % w/w | Tazarotene (as % w/w) ([5]; 6 months, 40° C.): 0.009 % w/w | Tazarotene (as % w/w) ([5]; 90 days, 6° C.): 0.106 % w/w | Tazarotene (as % w/w) ([5]; 90 days, 25° C.): 0.088 % w/w | Tazarotene (as % w/w) ([5]; 90 days, 30° C.): 0.085 % w/w | Tazarotene (as % w/w) ([5]; 90 days, 40° C.): 0.044 % w/w | Tazarotene (as % w/w) ([6]; 6 months, 6° C.): 0.106 % w/w | Tazarotene (as % w/w) ([6]; 6 months, 25° C.): 0.088 % w/w | Tazarotene (as % w/w) ([6]; 6 months, 30° C.): 0.083 % w/w | Tazarotene (as % w/w) ([6]; 6 months, 40° C.): 0.004 % w/w | Tazarotene (as % w/w) ([6]; 90 days, 6° C.): 0.103 % w/w | Tazarotene (as % w/w) ([6]; 90 days, 25° C.): 0.093 % w/w | Tazarotene (as % w/w) ([6]; 90 days, 30° C.): 0.087 % w/w | Tazarotene (as % w/w) ([6]; 90 days, 40° C.): 0.051 % w/w | Tazarotene (as % w/w) ([7]; 2 weeks, 25° C.): 0.088 % w/w | Tazarotene (as % w/w) ([7]; 2 weeks, 30° C.): 0.085 % w/w | Tazarotene (as % w/w) ([7]; 2 weeks, 40° C.): 0.081 % w/w | Tazarotene (as % w/w) ([7]; 90 days, 6° C.): 0.094 % w/w | Tazarotene (as % w/w) ([7]; 90 days, 25° C.): 0.090 % w/w | Tazarotene (as % w/w) ([7]; 90 days, 30° C.): 0.085 % w/w | Tazarotene (as % w/w) ([7]; 90 days, 40° C.): 0.078 % w/w | Tazarotene (as % w/w) ([8]; 2 weeks, 6° C.): 0.104 % w/w | Tazarotene (as % w/w) ([8]; 2 weeks, 25° C.): 0.098 % w/w | Tazarotene (as % w/w) ([8]; 2 weeks, 30° C.): 0.088 % w/w | Tazarotene (as % w/w) ([8]; 2 weeks, 40° C.): 0.080 % w/w | Tazarotene (as % w/w) ([8]; 6 months, 6° C.): 0.106 % w/w | Tazarotene (as % w/w) ([8]; 6 months, 25° C.): 0.090 % w/w | Tazarotene (as % w/w) ([8]; 6 months, 30° C.): 0.082 % w/w | Tazarotene (as % w/w) ([8]; 6 months, 40° C.): 0.046 % w/w | Tazarotene (as % w/w) ([9]; 2 weeks, 6° C.): 0.106 % w/w | Tazarotene (as % w/w) ([9]; 2 weeks, 25° C.): 0.098 % w/w | Tazarotene (as % w/w) ([9]; 2 weeks, 40° C.): 0.089 % w/w | Tazarotene (as % w/w) ([9]; 6 months, 6° C.): 0.107 % w/w | Tazarotene (as % w/w) ([9]; 6 months, 25° C.): 0.093 % w/w | Tazarotene (as % w/w) ([9]; 6 months, 40° C.): 0.014 % w/w | Tazarotene (as % w/w) ([9]; 30 days, 6° C.): 0.105 % w/w | Tazarotene (as % w/w) ([9]; 30 days, 25° C.): 0.094 % w/w | Tazarotene (as % w/w) ([9]; 30 days, 40° C.): 0.084 % w/w | Tazarotene (as % w/w) ([9]; 90 days, 6° C.): 0.106 % w/w | Tazarotene (as % w/w) ([9]; 90 days, 25° C.): 0.093 % w/w | Tazarotene (as % w/w) ([9]; 90 days, 40° C.): 0.086 % w/w | Tazarotene (as % w/w) ([10]; 2 weeks, 6° C.): 0.099 % w/w | Tazarotene (as % w/w) ([10]; 2 weeks, 25° C.): 0.090 % w/w | Tazarotene (as % w/w) ([10]; 2 weeks, 30° C.): 0.090 % w/w | Tazarotene (as % w/w) ([10]; 2 weeks, 40° C.): 0.085 % w/w | Tazarotene (as % w/w) ([10]; 6 months, 6° C.): 0.096 % w/w | Tazarotene (as % w/w) ([10]; 6 months, 25° C.): 0.091 % w/w | Tazarotene (as % w/w) ([10]; 6 months, 30° C.): 0.088 % w/w | Tazarotene (as % w/w) ([10]; 6 months, 40° C.): None Detected | Tazarotene (as % w/w) ([10]; 90 days, 6° C.): 0.102 % w/w | Tazarotene (as % w/w) ([10]; 90 days, 25° C.): 0.090 % w/w | Tazarotene (as % w/w) ([10]; 90 days, 30° C.): 0.089 % w/w | Tazarotene (as % w/w) ([10]; 90 days, 40° C.): 0.081 % w/w | Tazarotene (as % w/w) ([11]; 2 weeks, first temperature column (head not given; 6° C. by analogy)): 0.097 % w/w | Tazarotene (as % w/w) ([11]; 2 weeks, fourth temperature column (head not given; 40° C. by analogy)): 0.081 % w/w | Tazarotene (as % w/w) ([11]; 2 weeks, second temperature column (head not given; 25° C. by analogy)): 0.089 % w/w | Tazarotene (as % w/w) ([11]; 2 weeks, third temperature column (head not given; 30° C. by analogy)): 0.086 % w/w | Tazarotene (as % w/w) ([11]; 6 months, first temperature column (head not given; 6° C. by analogy)): 0.098 % w/w | Tazarotene (as % w/w) ([11]; 6 months, fourth temperature column (head not given; 40° C. by analogy)): None Detected | Tazarotene (as % w/w) ([11]; 6 months, second temperature column (head not given; 25° C. by analogy)): 0.085 % w/w | Tazarotene (as % w/w) ([11]; 6 months, third temperature column (head not given; 30° C. by analogy)): 0.085 % w/w | Tazarotene (as % w/w) ([11]; 90 days, first temperature column (head not given; 6° C. by analogy)): 0.100 % w/w | Tazarotene (as % w/w) ([11]; 90 days, fourth temperature column (head not given; 40° C. by analogy)): 0.079 % w/w | Tazarotene (as % w/w) ([11]; 90 days, second temperature column (head not given; 25° C. by analogy)): 0.090 % w/w | Tazarotene (as % w/w) ([11]; 90 days, third temperature column (head not given; 30° C. by analogy)): 0.087 % w/w | Tazarotene (as % w/w) ([12]; 60 days, 6° C.): 0.11 % w/w | Tazarotene (as % w/w) ([12]; 60 days, 25° C.): 0.109 % w/w | Tazarotene (as % w/w) ([12]; 60 days, 30° C.): 0.105 % w/w | Tazarotene (as % w/w) ([12]; 60 days, 40° C.): 0.107 % w/w | Tazarotene (as % w/w) ([12]; 90 days, 6° C.): 0.107 % w/w | Tazarotene (as % w/w) ([12]; 90 days, 25° C.): 0.111 % w/w | Tazarotene (as % w/w) ([12]; 90 days, 30° C.): 0.108 % w/w | Tazarotene (as % w/w) ([12]; 90 days, 40° C.): 0.116 % w/w
